Reference: US20250228239A1, “MOLECULES HAVING PESTICIDAL UTILITY, AND INTERMEDIATES, COMPOSITIONS, AND PROCESSES, RELATED THERETO” (priority 2024, published 2025)
Where two headings read alike, the source gives them in different places.

Tests used:
Type in all cases: in vivo
[1] = tested on: Beet Armyworm (Spodoptera exigua, LAPHEG); test: Bioassays on Beet Armyworm (BAW), 128-well diet tray assay; conditions: Spodoptera exigua, read-out: BAW
Summary of the method: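 Percent larval mortality, averaged across eight wells, scored after five to seven days at 25° C. under 14:10 light-dark. Each well held one to five second instars feeding on diet dosed at 50 μg/cm^2 with compound from 90:10 acetone-water, solvent dried off.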

[2] = tested on: Cabbage Looper (Trichoplusia ni, TRIPNI); test: Bioassays on Cabbage Looper (CL), 128-well diet tray assay; conditions: Trichoplusia ni, read-out: CL
Summary of the method: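 Second-instar larvae (1–5 per well) placed on artificial diet surface-treated with 50 μg/cm^2 test molecule applied in 90:10 acetone-water and dried. Held at 25° C., 14:10 light-dark, for five to seven days. Percent mortality scored per well and averaged over eight wells.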

[3] = tested on: Yellow Fever Mosquito (Aedes aegypti, AEDSAE)
Summary of the method: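 Compounds from 4000 ppm DMSO stocks were diluted in 90:10 water/acetone and dispensed into wells, then infested with about 1-day-old larvae in liver-powder water. Covered plates were held at room temperature for 3 days and each well was scored for mortality against a rating scale; six replicate plates per compound.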

[4] = tested on: Green Peach Aphid (Myzus persicae, MYZUPE); test: Bioassays on Green Peach Aphid (GPA), foliar spray on cabbage seedlings; conditions: 72 h, read-out: GPA
Summary of the method: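 Percent control (Abbott-corrected versus solvent-sprayed plants) comes from live-aphid counts three days after treatment at about 25° C. Test solution at 200 ppm was sprayed to runoff onto both leaf surfaces of cabbage seedlings infested a day earlier with 20-50 aphids; four replicate pots.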

[5] = Table ABC: Biological Results, species BAW
[6] = Table ABC: Biological Results, species CL
[7] = Table ABC: Biological Results, species YFM
[8] = Table ABC: Biological Results, species GPA
[9] = Yellow Fever Mosquito, rating class
[10] = Green Peach Aphid, rating class

| Compound | pest or weed control at 50 µg/cm2 [1, 5] [%] | pest or weed control at 50 µg/cm2 [2, 6] [%] | YFM [3, 7] | pest or weed control at 200 µg/mL [4, 8] [%] | pest or weed control at 50 µg/cm2 ([1]; Beet Armyworm, rating class) [%] | pest or weed control at 50 µg/cm2 ([2]; Cabbage Looper, rating class) [%] | YFM [3, 9] | pest or weed control at 200 µg/mL [4, 10] [%] |
| --- | --- | --- | --- | --- | --- | --- | --- | --- |
| CC(=O)Nc1cc(NC(=O)c2cc(NC(=O)[C@H]3[C@H](c4ccc(Cl)c(Cl)c4)C3(Cl)Cl)ccc2Cl)c(F)cc1F [F1246, N-(5-Acetamido-2,4-difluorophenyl)-2-Chloro-5-((1R,3R)-2,2-dichloro-3-(3,4-dichlorophenyl)cyclopropane-1-carboxamido)benzamide] | 50 to 100 | 50 to 100 | A (80–100) | 80 to 100 | – | – | – | – |
| Nc1ccc(F)c(NC(=O)c2cc(NC(=O)[C@H]3[C@H](c4ccc(F)c(Cl)c4)C3(Cl)Cl)ccc2Cl)c1F [F1247, N-(3-Amino-2,6-difluorophenyl)-2-chloro-5-((1R,3R)-2,2-dichloro-3-(3-chloro-4-fluorophenyl)cyclopropane-1-carboxamido)benzamide] | 50 to 100 | 50 to 100 | A (80–100) | 80 to 100 | – | – | – | – |
| O=C(Nc1ccc(F)c(NC(=O)C(F)(F)Cl)c1F)c1cc(NC(=O)[C@H]2[C@H](c3ccc(Cl)c(Cl)c3)C2(Cl)Cl)ccc1Cl [F1248, 2-Chloro-N-(3-(2-chloro-2,2-difluoroacetamido)-2,4-difluorophenyl)-5-((1R,3R)-2,2-dichloro-3-(3,4-dichlorophenyl)cyclopropane-1-carboxamido)benzamide] | 50 to 100 | 50 to 100 | A (80–100) | 80 to 100 | – | – | – | – |
| Nc1ccc(F)c(NC(=O)c2cc(NC(=O)[C@H]3[C@H](c4ccc(Cl)c(Cl)c4)C3(Cl)Cl)ccc2Cl)c1F [F1250, N-(3-Amino-2,6-difluorophenyl)-2-chloro-5-((1R,3R)-2,2-dichloro-3-(3,4-dichlorophenyl)cyclopropane-1-carboxamido)benzamide] | 50 to 100 | 50 to 100 | A (80–100) | 80 to 100 | – | – | – | – |
| O=C(Nc1ccc(F)c(NC(=O)C(F)(F)C(F)(F)F)c1F)c1cc(NC(=O)[C@H]2[C@H](c3ccc(Cl)c(Cl)c3)C2(Cl)Cl)ccc1Cl [F1251, 2-Chloro-5-((1R,3R)-2,2-dichloro-3-(3,4-dichlorophenyl)cyclopropane-1-carboxamido)-N-(2,4-difluoro-3-(2,2,3,3,3-pentafluoropropanamido)phenyl)benzamide] | 50 to 100 | 50 to 100 | A (80–100) | 0 to 80 | – | – | – | – |
| CCOC(C)C(=O)Nc1c(F)ccc(NC(=O)c2cc(NC(=O)[C@H]3[C@H](c4ccc(F)c(C(F)(F)F)c4)C3(Cl)Cl)ccc2Cl)c1F (stereo partly drawn) [F1364, 2-Chloro-5-((1R,3R)-2,2-dichloro-3-(4-fluoro-3-(trifluoromethyl)phenyl)cyclopropane-1-carboxamido)-N-(3-(2-ethoxypropanamido)-2,4-difluorophenyl)benzamide] | 50 to 100 | 50 to 100 | A (80–100) | 0 to 80 | – | – | – | – |
| CCC(=O)Nc1c(F)ccc(NC(=O)c2cc(NC(=O)[C@H]3[C@H](c4ccc(F)c(C(F)(F)F)c4)C3(Cl)Cl)ccc2Cl)c1F [F1371, 2-Chloro-5-((1R,3R)-2,2-dichloro-3-(4-fluoro-3-(trifluoromethyl)phenyl)cyclopropane-1-carboxamido)-N-(2,4-difluoro-3-propionamidophenyl)benzamide] | 50 to 100 | 50 to 100 | A (80–100) | 0 to 80 | – | – | – | – |
| CN(C(=O)C(F)F)c1c(F)ccc(NC(=O)c2cc(NC(=O)[C@H]3[C@H](c4ccc(F)c(C(F)(F)F)c4)C3(Cl)Cl)ccc2Cl)c1F [F1386, 2-Chloro-5-((1R,3R)-2,2-dichloro-3-(4-fluoro-3-(trifluoromethyl)phenyl)cyclopropane-1-carboxamido)-N-(3-(2,2-difluoro-N-methylacetamido)-2,4-difluorophenyl)benzamide] | 50 to 100 | 50 to 100 | A (80–100) | 0 to 80 | – | – | – | – |
| CN(C(=O)C(F)F)c1c(F)ccc(NC(=O)c2cc(NC(=O)[C@H]3[C@H](c4ccc(F)c(Cl)c4)C3(Cl)Cl)ccc2Cl)c1F [F1460, 2-Chloro-5-((1R,3R)-2,2-dichloro-3-(3-chloro-4-fluorophenyl)cyclopropane-1-carboxamido)-N-(3-(2,2-difluoro-N-methylacetamido)-2,4-difluorophenyl)benzamide] | – | – | – | – | 50 to 100 | 50 to 100 | A (80–100) | 80 to 100 |
| O=C(Nc1ccc(F)cc1)c1c(Cl)ccc(NC(=O)[C@H]2[C@H](c3ccc(F)c(Cl)c3)C2(Cl)Cl)c1F [F1465, 6-chloro-3-((1R,3R)-2,2-dichloro-3-(3-chloro-4-fluorophenyl)cyclopropane-1-carboxamido)-2-fluoro-N-(4-fluorophenyl)benzamide] | – | – | – | – | 50 to 100 | 50 to 100 | A (80–100) | 80 to 100 |
| CCCC(=O)Nc1c(F)ccc(NC(=O)c2cc(NC(=O)[C@H]3[C@H](c4ccc(Cl)c(Cl)c4)C3(Cl)Cl)ccc2Cl)c1F [F1473, N-(3-Butyramido-2,4-difluorophenyl)-2-chloro-5-((1R,3R)-2,2-dichloro-3-(3,4-dichlorophenyl)cyclopropane-1-carboxamido)benzamide] | – | – | – | – | 50 to 100 | 50 to 100 | A (80–100) | 0 to 80 |
| CCCCC(=O)Nc1c(F)ccc(NC(=O)c2cc(NC(=O)[C@H]3[C@H](c4ccc(Cl)c(Cl)c4)C3(Cl)Cl)ccc2Cl)c1F [F1474, 2-Chloro-5-((1R,3R)-2,2-dichloro-3-(3,4-dichlorophenyl)cyclopropane-1-carboxamido)-N-(2,4-difluoro-3-pentanamidophenyl)benzamide] | – | – | – | – | 50 to 100 | 50 to 100 | A (80–100) | 0 to 80 |
| O=C1CC(C(=O)Nc2c(F)ccc(NC(=O)c3cc(NC(=O)[C@H]4[C@H](c5ccc(Cl)c(Cl)c5)C4(Cl)Cl)ccc3Cl)c2F)C1 [F1475, 2-Chloro-5-((1R,3R)-2,2-dichloro-3-(3,4-dichlorophenyl)cyclopropane-1-carboxamido)-N-(2,4-difluoro-3-(3-oxocyclobutane-1-carboxamido)phenyl)benzamide] | – | – | – | – | 50 to 100 | 50 to 100 | A (80–100) | 0 to 80 |
| CC(Br)C(=O)Nc1c(F)ccc(NC(=O)c2cc(NC(=O)[C@H]3[C@H](c4ccc(F)c(C(F)(F)F)c4)C3(Cl)Cl)ccc2Cl)c1F (stereo partly drawn) [F1479, N-(3-(2-Bromopropanamido)-2,4-difluorophenyl)-2-chloro-5-((1R,3R)-2,2-dichloro-3-(4-fluoro-3-(trifluoromethyl)phenyl)cyclopropane-1-carboxamido)benzamide] | – | – | – | – | 50 to 100 | 50 to 100 | A (80–100) | 0 to 80 |
| CC(C)C(=O)Nc1c(F)ccc(NC(=O)c2cc(NC(=O)[C@H]3[C@H](c4ccc(F)c(C(F)(F)F)c4)C3(Cl)Cl)ccc2Cl)c1F [F1483, 2-Chloro-5-((1R,3R)-2,2-dichloro-3-(4-fluoro-3-(trifluoromethyl)phenyl)cyclopropane-1-carboxamido)-N-(2,4-difluoro-3-isobutyramidophenyl)benzamide] | – | – | – | – | 50 to 100 | 50 to 100 | A (80–100) | 0 to 80 |
| COCCC(=O)Nc1c(F)ccc(NC(=O)c2cc(NC(=O)[C@H]3[C@H](c4ccc(F)c(C(F)(F)F)c4)C3(Cl)Cl)ccc2Cl)c1F [F1489, 2-Chloro-5-((1R,3R)-2,2-dichloro-3-(4-fluoro-3-(trifluoromethyl)phenyl)cyclopropane-1-carboxamido)-N-(2,4-difluoro-3-(3-methoxypropanamido)phenyl)benzamide] | – | – | – | – | 50 to 100 | 50 to 100 | A (80–100) | 0 to 80 |
| O=C(Nc1ccc(F)c(NC(=O)C(F)(F)F)c1F)c1cc(NC(=O)[C@H]2[C@H](c3ccc(Cl)c(Cl)c3)C2(Cl)Cl)ccc1F [F1492, 5-((1R,3R)-2,2-Dichloro-3-(3,4-dichlorophenyl)cyclopropane-1-carboxamido)-N-(2,4-difluoro-3-(2,2,2-trifluoroacetamido)phenyl)-2-fluorobenzamide] | – | – | – | – | 50 to 100 | 50 to 100 | A (80–100) | 0 to 80 |
